Consider 2 compounds from patent US8409619B2, “Oral drug delivery system for azole, moxifloxacin and rifampicin” (priority 2008, dated 2013).

Like-named read-outs stand apart in the source and are kept apart here.

Assay in data set [1]: not given
This is another data set of the same source.

The next data set deals with M. tuberculosis H37Rv. Description: Experimental infection and chemotherapy (murine tuberculosis, cfu in lungs and spleen). Type of data set: in vivo. To be noted: for Log10 cfu Lung / Log10 cfu Spleen: mice infected i.v. with M. tuberculosis H37Rv, eight weeks oral chemotherapy, sacrificed day 62, mean ± S.D.; for reduction of bacterial burden in organs / cfu reduction from lungs and spleen as compared to untreated controls: mice, eight weeks of chemotherapy; for cfu reduction from lungs and spleen as compared to untreated controls: free form daily/twice daily or encapsulated form weekly.

Turning to `COc1c(N2C[C@@H]3CCCN[C@@H]3C2)c(F)cc2c(=O)c(C(=O)O)cn(C3CC3)c12` [Free moxifloxacin, moxifloxacin], the “time up to which drug was detected in organs” value (oral free drug, mice) is reported as not above 24 h. In addition, in data set [1] (oral free drug, mice), the “time up to which drug was detectable in plasma” value was “up to 12 h”. In addition, in the data set with M. tuberculosis H37Rv, the “Log10 cfu Lung” value came to 4.96 ± 0.013 Log10 cfu; the “Log10 cfu Spleen” value is recorded as 4.96 ± 0.013 Log10 cfu; the “reduction of bacterial burden in organs” value is on record as “about 2 log cfu”; the “cfu reduction from lungs and spleen as compared to untreated controls” value is listed as “approximately 2 Log10 cfu”.
On to `Clc1ccc(COC(Cn2ccnc2)c2ccc(Cl)cc2Cl)cc1` (stereo not drawn) [Free econazole, econazole], for which the “time up to which drug was detected in organs” value (mouse, in vivo, po) is reported as “up to 12 h”. Also, the “time up to which drug was detectable in plasma” value in data set [1] (mouse, in vivo, po) lay within 3 to 4 h. In addition, in the data set on M. tuberculosis H37Rv, the “Log10 cfu Lung” value was determined as 4.87 ± 0.040 Log10 cfu; the “Log10 cfu Spleen” value came out at 4.89 ± 0.020 Log10 cfu; the “reduction of bacterial burden in organs” value is “about 2 log cfu”; the “cfu reduction from lungs and spleen as compared to untreated controls” value is “approximately 2 Log10 cfu”.
